PubChem BioAssay AID2060513 (Molecular Pharmacology Branch, DTP, NCI, 2025)

Tested on: 299254-011-R-J1-PDC complex spheroids viability
Experiment: Anticancer human tumor 299254-011-R-J1-PDC patient-derived melanoma cell line growth inhibition [GQUAD]
Conditions: for IC50: curve of first compound; for viability, T/C: stronger effect = lower value
How it was run: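 Tumor cells were grown as complex spheroids with HUVEC endothelial cells and mesenchymal stem cells as stroma. G-quadruplex stabilizers were combined with targeted agents over half-log dilutions from near the clinical Cmax, or from 10 microM.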

[1] = second compound 0.0316 µM, first compound 0.0316 µM
[2] = second compound 0.0316 µM, first compound 0.1 µM
[3] = second compound 0.0316 µM, first compound 0.316 µM
[4] = second compound 0.0316 µM, first compound 1 µM
[5] = second compound 0.0316 µM, first compound 3.16 µM
[6] = second compound 0.0316 µM, first compound 10 µM
[7] = second compound 0.1 µM, first compound 0.0316 µM
[8] = second compound 0.1 µM, first compound 0.1 µM
[9] = second compound 0.1 µM, first compound 0.316 µM
[10] = second compound 0.1 µM, first compound 1 µM
[11] = second compound 0.1 µM, first compound 3.16 µM
[12] = second compound 0.1 µM, first compound 10 µM
[13] = second compound 0.316 µM, first compound 0.0316 µM
[14] = second compound 0.316 µM, first compound 0.1 µM
[15] = second compound 0.316 µM, first compound 0.316 µM
[16] = second compound 0.316 µM, first compound 1 µM
[17] = second compound 0.316 µM, first compound 3.16 µM
[18] = second compound 0.316 µM, first compound 10 µM
[19] = second compound 1 µM, first compound 0.0316 µM
[20] = second compound 1 µM, first compound 0.1 µM
[21] = second compound 1 µM, first compound 0.316 µM
[22] = second compound 1 µM, first compound 1 µM
[23] = second compound 1 µM, first compound 3.16 µM
[24] = second compound 1 µM, first compound 10 µM
[25] = second compound 3.16 µM, first compound 0.0316 µM
[26] = second compound 3.16 µM, first compound 0.1 µM
[27] = second compound 3.16 µM, first compound 0.316 µM
[28] = second compound 3.16 µM, first compound 1 µM
[29] = second compound 3.16 µM, first compound 3.16 µM
[30] = second compound 3.16 µM, first compound 10 µM
[31] = second compound 10 µM, first compound 0.0316 µM
[32] = second compound 10 µM, first compound 0.1 µM
[33] = second compound 10 µM, first compound 0.316 µM
[34] = second compound 10 µM, first compound 1 µM
[35] = second compound 10 µM, first compound 3.16 µM
[36] = second compound 10 µM, first compound 10 µM
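Further: spheroids exposed to the agents for seven days before readout.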
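Wherever viability, T/C is given: percent viability relative to DMSO vehicle control wells = 100%.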

With Nc1ccn(C2OC(CO)C(O)C2(F)F)c(=O)n1 (stereo unspecified) + Cc1cnc(CNC(=O)c2c(=O)c3ccc(N4CCCN(C)CC4)nc3n3c2sc2ccccc23)cn1 the IC50 (second compound 0.0316 µM) was > 10000 nM, the IC50 (second compound 0.1 µM) was 282 nM and the IC50 (second compound 0.316 µM) was > 10000 nM. The IC50 (second compound 1 µM) was 1000 nM, the IC50 (second compound 3.16 µM) was 835 nM and the IC50 (second compound 10 µM) was < 31.6 nM. It also gave a viability, T/C [1] of 102%, a viability, T/C [2] of 76.5% and a viability, T/C [3] of 64.3%. For the same molecule, the viability, T/C [4] was 44.7%, the viability, T/C [5] was 56.7% and the viability, T/C [6] was 68%. It also gave a viability, T/C [7] of 90.4%, a viability, T/C [8] of 72% and a viability, T/C [9] of 45.6%. For the same molecule, the viability, T/C [10] was 48%, the viability, T/C [11] was 50.1% and the viability, T/C [12] was 46.7%. For the same molecule, the viability, T/C [13] was 80.5%, the viability, T/C [14] was 78.8% and the viability, T/C [15] was 69%. It also gave a viability, T/C [16] of 56.1%, a viability, T/C [17] of 54.3% and a viability, T/C [18] of 70.3%. The viability, T/C [19] was 85.6%, the viability, T/C [20] was 87% and the viability, T/C [21] was 48.7%. It also gave a viability, T/C [22] of 44.5%, a viability, T/C [23] of 60.5% and a viability, T/C [24] of 58.8%. For the same molecule, the viability, T/C [25] was 79.3%, the viability, T/C [26] was 69.3% and the viability, T/C [27] was 64.6%. It also gave a viability, T/C [28] of 42.9%, a viability, T/C [29] of 54.4% and a viability, T/C [30] of 44.6%. It also gave a viability, T/C [31] of 50%, a viability, T/C [32] of 24.9% and a viability, T/C [33] of 47.8%. For the same molecule, the viability, T/C [34] was 49.9%, the viability, T/C [35] was 48.3% and the viability, T/C [36] was 0.4%.
In the case of COc1ncnc(C2CC2)c1-c1ncc2cnn(Cc3ccc(-c4nc(C(F)(F)F)cn4C(C)C)cc3)c2n1 + CN(C)c1ccc(Nc2c3ccc(NC(=O)CCN4CCCC4)cc3nc3cc(NC(=O)CCN4CCCC4)ccc23)cc1, the IC50 (second compound 0.0316 µM) is reported as > 10000 nM, the IC50 (second compound 0.1 µM) is reported as > 10000 nM and the IC50 (second compound 0.316 µM) is reported as > 10000 nM. For the same molecule, the IC50 (second compound 1 µM) was > 10000 nM, the IC50 (second compound 3.16 µM) was > 10000 nM and the IC50 (second compound 10 µM) was > 10000 nM. It also gave a viability, T/C [1] of 92.6%, a viability, T/C [2] of 78.1% and a viability, T/C [3] of 106%. It also gave a viability, T/C [4] of 98.3%, a viability, T/C [5] of 101% and a viability, T/C [6] of 88%. The viability, T/C [7] was 102%, the viability, T/C [8] was 97.3% and the viability, T/C [9] was 114%. For the same molecule, the viability, T/C [10] was 96.3%, the viability, T/C [11] was 97.4% and the viability, T/C [12] was 121%. For the same molecule, the viability, T/C [13] was 101%, the viability, T/C [14] was 103% and the viability, T/C [15] was 92.2%. The viability, T/C [16] was 99.4%, the viability, T/C [17] was 101% and the viability, T/C [18] was 117%. The viability, T/C [19] was 117%, the viability, T/C [20] was 77% and the viability, T/C [21] was 98.6%. It also gave a viability, T/C [22] of 98.6%, a viability, T/C [23] of 99.8% and a viability, T/C [24] of 107%. It also gave a viability, T/C [25] of 86.9%, a viability, T/C [26] of 99.8% and a viability, T/C [27] of 86.5%. It also gave a viability, T/C [28] of 105%, a viability, T/C [29] of 113% and a viability, T/C [30] of 104%. For the same molecule, the viability, T/C [31] was 93.3%, the viability, T/C [32] was 110% and the viability, T/C [33] was 96.2%. It also gave a viability, T/C [34] of 79.4%, a viability, T/C [35] of 89.5% and a viability, T/C [36] of 93.7%.
For Cn1ncnc1[C@H]1c2n[nH]c(=O)c3cc(F)cc(c23)N[C@@H]1c1ccc(F)cc1 + Cc1cnc(CNC(=O)c2c(=O)c3ccc(N4CCCN(C)CC4)nc3n3c2sc2ccccc23)cn1, the IC50 (second compound 0.0316 µM) was > 316 nM, the IC50 (second compound 0.1 µM) was > 316 nM and the IC50 (second compound 0.316 µM) was > 316 nM. The IC50 (second compound 1 µM) was > 316 nM, the IC50 (second compound 3.16 µM) was > 316 nM and the IC50 (second compound 10 µM) was > 316 nM. For the same molecule, the viability, T/C (second compound 0.0316 µM, first compound 0.000999 µM) was 94.1%, the viability, T/C (second compound 0.0316 µM, first compound 0.00316 µM) was 116% and the viability, T/C (second compound 0.0316 µM, first compound 0.00999 µM) was 125%. The viability, T/C [1] was 87.5%, the viability, T/C (second compound 0.0316 µM, first compound 0.0999 µM) was 108% and the viability, T/C [3] was 105%. The viability, T/C (second compound 0.1 µM, first compound 0.000999 µM) was 97.2%, the viability, T/C (second compound 0.1 µM, first compound 0.00316 µM) was 96.2% and the viability, T/C (second compound 0.1 µM, first compound 0.00999 µM) was 91.4%. It also gave a viability, T/C [7] of 122%, a viability, T/C (second compound 0.1 µM, first compound 0.0999 µM) of 121% and a viability, T/C [9] of 90.3%. The viability, T/C (second compound 0.316 µM, first compound 0.000999 µM) was 93.4%, the viability, T/C (second compound 0.316 µM, first compound 0.00316 µM) was 91.2% and the viability, T/C (second compound 0.316 µM, first compound 0.00999 µM) was 88.3%. The viability, T/C [13] was 99.1%, the viability, T/C (second compound 0.316 µM, first compound 0.0999 µM) was 111% and the viability, T/C [15] was 105%. The viability, T/C (second compound 1 µM, first compound 0.000999 µM) was 90.9%, the viability, T/C (second compound 1 µM, first compound 0.00316 µM) was 96.9% and the viability, T/C (second compound 1 µM, first compound 0.00999 µM) was 84.2%. For the same molecule, the viability, T/C [19] was 104%, the viability, T/C (second compound 1 µM, first compound 0.0999 µM) was 83.2% and the viability, T/C [21] was 94.1%. For the same molecule, the viability, T/C (second compound 3.16 µM, first compound 0.000999 µM) was 85.3%, the viability, T/C (second compound 3.16 µM, first compound 0.00316 µM) was 82.3% and the viability, T/C (second compound 3.16 µM, first compound 0.00999 µM) was 68.8%. For the same molecule, the viability, T/C [25] was 91.2%, the viability, T/C (second compound 3.16 µM, first compound 0.0999 µM) was 74.2% and the viability, T/C [27] was 92.1%. It also gave a viability, T/C (second compound 10 µM, first compound 0.000999 µM) of 71.7%, a viability, T/C (second compound 10 µM, first compound 0.00316 µM) of 60.6% and a viability, T/C (second compound 10 µM, first compound 0.00999 µM) of 105%. For the same molecule, the viability, T/C [31] was 61.1%, the viability, T/C (second compound 10 µM, first compound 0.0999 µM) was 87.4% and the viability, T/C [33] was 61.8%.
